Experimental data taken from US20230127047A1, “SELECTIVE GIP RECEPTOR AGONISTS COMPRISING A CHELATING MOIETY FOR IMAGING AND THERAPY PURPOSES” (ANTAROS MEDICAL AB, priority 2020, published 2023).
Where a SMILES comes first, the peptide text is derived from it. Where no end group is shown, it is not given here. [ ]: non-standard residue; d: D form. The star is where a group is joined. DO3A(CH2CH2SO2CH2CH2) = O=C(O)CN1CCN(CCS(=O)(=O)CC*)CCN(CC(=O)O)CCN(CC(=O)O)CC1; DOTA = O=C(O)CN1CCN(CC(=O)O)CCN(CC(=O)*)CCN(CC(=O)O)CC1; Aib = CC(C)(N)C(=O)O

Assays:
[1] = target: human GLP-1 receptor (hGLP-1R) (Homo sapiens, UniProt P43220); assay: cAMP response (HTRF) in PSC-HEK-293 cells expressing human GLP-1 receptor; type: cell-based
Experimental: (§1) Each vial contained 1.8 ml cells. The vials were slowly frozen to −80° C. in isopropanol, and then transferred in liquid nitrogen for storage.
(§2) Prior to their use, frozen cells were thawed quickly at 37° C. and washed (5 min at 900 rpm) with 20 ml cell buffer (lx HBSS; 20 mM HEPES, with 0.1% BSA).
(§3) For measurement of cAMP generation, 5 μl cells (final 5000 cells/well) and 5 μl of test compound were added to a 384-well plate, followed by incubation for 30 min at room temperature.
(§4) The cAMP generated was determined using a kit from Cisbio Corp. based on HTRF (Homogenous Time Resolved Fluorescence). The cAMP assay was performed according to manufacturer's instructions (Cisbio).
(§5) cAMP content of cells was determined using a kit from Cisbio Corp. (cat. no. 62AM4PEC) based on HTRF (Homogenous Time Resolved Fluorescence). […] Medium was then removed and cells washed with PBS lacking calcium and magnesium, followed by proteinase treatment with accutase (Sigma-Aldrich cat. no. A6964). Detached cells were washed and resuspended in assay buffer (1×HBSS; 20 mM HEPES, 0.1% BSA, 2 mM IBMX) and cellular density determined. They were then diluted to 400000 cells/ml and 25 μl-aliquots dispensed into the wells of 96-well plates. For measurement, 25 μl of test compound in assay buffer was added to the wells, followed by incubation for 30 minutes at room temperature.

[2] = target: T1, glucagon receptor (hGCGR) (Homo sapiens, UniProt P47871); assay: cAMP response (HTRF) in PSC-HEK-293 cells expressing human glucagon receptor; type: cell-based
T1 construct: expressed in transfected cells
Experimental: as §1, §2, §3, §4, §5

[3] = Chemical stability testing of peptides in solution (UHPLC); type: physicochemical; conditions: 0.5 mg/mL, pH 7.3 TRIS buffer
Experimental: For chemical stability testing, the target concentration was 0.5 mg/mL pure compound in a pH 7.3 TRIS buffer (50 mM) containing m-cresol (30 mM), sodium chloride (85 mM) and polysorbate 20 (8 μM). The solution was stored for 7 days at 4° C., or 40° C. After that time, the solution was analysed by UHPLC (Analytical UHPLC Method D).
The “% Purity” after 7 days is defined by the % Relative purity at day 7 in relation to the % Relative purity at t0 following the equation
% Purity=[(% Relative purity t7)×100)]/% Relative purity t0
The % Relative purity at t0 was calculated by dividing the peak area of the peptide at t0 by the sum of all peak areas at t0 following the equation
% Relative purity t0=[(peak area t0)×100]/sum of all peak areas t0
Likewise, the % relative purity t7 was calculated by dividing the peak are of the peptide at t7 by the sum of all peak areas at t7 following the equation
% Relative purity t7=[(peak area t7)×100]/sum of all peak areas t7
Chemical stability of peptidic compounds was assessed as described in Methods.

[4] = target: T2, human GIP receptor (hGIPR) (Homo sapiens, UniProt P48546); assay: cAMP response (HTRF) in PSC-HEK-293 cells expressing human GIP receptor; type: cell-based; conditions: from EC50 values of Table 5
T2 sequence (P48546 22-466): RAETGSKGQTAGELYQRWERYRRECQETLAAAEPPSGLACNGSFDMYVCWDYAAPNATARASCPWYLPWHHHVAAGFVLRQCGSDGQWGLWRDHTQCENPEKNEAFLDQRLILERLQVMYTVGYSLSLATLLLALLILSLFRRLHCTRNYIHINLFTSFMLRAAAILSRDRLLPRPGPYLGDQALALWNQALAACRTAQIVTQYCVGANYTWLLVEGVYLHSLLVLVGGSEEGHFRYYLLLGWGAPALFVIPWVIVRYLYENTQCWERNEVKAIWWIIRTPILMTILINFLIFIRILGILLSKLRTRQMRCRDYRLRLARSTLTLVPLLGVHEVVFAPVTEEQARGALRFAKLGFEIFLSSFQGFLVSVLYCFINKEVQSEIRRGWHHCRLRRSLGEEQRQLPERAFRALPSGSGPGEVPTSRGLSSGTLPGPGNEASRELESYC
Experimental: as §1, §2, §3, §4, §5

human GIP receptor [5] = target: T3, human GIP receptor (human, UniProt P48546 22-466); assay: [125I]GIP displacement, SPA beads with hGIPR HEK-293 membranes
T3 construct: whole, on cells; cAMP assay: whole PSC-HEK-293 cells stably expressing the receptor; also called hGIPR; hGIP R
T3 sequence (looked up): T2 sequence (P48546 22-466)

human glucagon receptor = human glucagon receptor (human, UniProt P47871 26-477); assay: cell-based or functional assay
human GLP-1 receptor = human GLP-1 receptor (human, UniProt P43220 24-463); assay: cell-based or functional assay
human GIP receptor [6] = target: T3, human GIP receptor; assay: cell-based or functional assay
human GIP receptor [7] = target: T3, human GIP receptor; assay: [125I]GIP displacement IC50, reference GIP(1-30) (SEQ ID NO: 2)
human GIP receptor [8] = target: T3, human GIP receptor; assay: [125I]GIP displacement IC50, reference native GIP (SEQ ID NO: 1)

human GLP-1 receptor (hGLP-1R), sequence (P43220 24-463): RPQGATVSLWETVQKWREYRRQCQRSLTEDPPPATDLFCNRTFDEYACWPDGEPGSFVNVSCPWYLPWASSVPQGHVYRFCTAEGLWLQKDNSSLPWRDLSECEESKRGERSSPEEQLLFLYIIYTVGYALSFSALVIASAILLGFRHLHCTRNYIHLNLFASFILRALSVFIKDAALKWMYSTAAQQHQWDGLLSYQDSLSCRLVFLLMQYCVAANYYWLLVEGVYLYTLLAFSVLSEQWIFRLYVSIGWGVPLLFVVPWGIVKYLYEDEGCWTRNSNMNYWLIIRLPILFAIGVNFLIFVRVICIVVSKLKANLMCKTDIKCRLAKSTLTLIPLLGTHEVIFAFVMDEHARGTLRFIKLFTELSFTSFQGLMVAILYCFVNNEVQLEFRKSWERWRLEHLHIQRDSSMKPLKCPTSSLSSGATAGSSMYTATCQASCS
T1 sequence (P47871 26-477): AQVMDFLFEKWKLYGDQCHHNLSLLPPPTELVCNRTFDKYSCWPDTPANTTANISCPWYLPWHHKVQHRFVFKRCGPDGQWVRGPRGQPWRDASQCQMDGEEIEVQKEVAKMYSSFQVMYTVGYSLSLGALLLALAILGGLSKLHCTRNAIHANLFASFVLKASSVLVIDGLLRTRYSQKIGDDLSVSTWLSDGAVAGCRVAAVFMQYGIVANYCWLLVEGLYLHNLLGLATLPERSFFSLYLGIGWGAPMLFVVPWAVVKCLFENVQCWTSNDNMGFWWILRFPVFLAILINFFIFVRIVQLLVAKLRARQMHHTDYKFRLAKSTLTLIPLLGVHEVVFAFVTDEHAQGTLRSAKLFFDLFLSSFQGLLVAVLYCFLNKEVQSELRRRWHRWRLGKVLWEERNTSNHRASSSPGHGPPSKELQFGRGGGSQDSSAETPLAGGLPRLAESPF
human glucagon receptor, sequence (P47871 26-477): as above
Experimental for physchem: Depending on the presence of remaining material as judged by visual inspection the compounds were determined to be soluble at the target concentration in the respective buffer system.
Solubility buffer system A) 100 mM Phosphate buffer pH 7.4
Solubility buffer system B) Acetate buffer pH 4.5
Solubility buffer system C) 100 mM Histidine buffer pH 5.5
Solubility buffer system D) 10 mM Glycine pH 2.5
Solubility buffer system E) 10 mM Glycine pH 2.0
Solubility buffer system F) 50 mM TRIS buffer, 30 mM m-cresol, 85 mM sodium chloride, 8 μM polysorbate 20 pH 7.3
Peptide samples were prepared in the respective solubility buffer system and solubility was assessed as described in Methods.

## CC[C@H](C)[C@H](NC(=O)[C@H](CO)NC(=O)[C@H](Cc1ccc(O)cc1)NC(=O)[C@H](CC(=O)O)NC(=O)[C@H](CO)NC(=O)[C@@H](NC(=O)[C@H](Cc1ccccc1)NC(=O)[C@@H](NC(=O)CNC(=O)[C@H](CCC(=O)O)NC(=O)[C@H](C)NC(=O)[C@@H](N)Cc1ccc(O)cc1)[C@@H](C)O)[C@@H](C)CC)C(=O)N[C@@H](C)C(=O)N[C@@H](CCSC)C(=O)N[C@@H](CC(=O)O)C(=O)N[C@@H](CCCCN)C(=O)N[C@H](C(=O)N[C@@H](Cc1c[nH]cn1)C(=O)N[C@@H](CCC(N)=O)C(=O)N[C@@H](CCC(N)=O)C(=O)N[C@@H](CC(=O)O)C(=O)N[C@@H](Cc1ccccc1)C(=O)N[C@H](C(=O)N[C@@H](CC(N)=O)C(=O)N[C@@H](Cc1c[nH]c2ccccc12)C(=O)N[C@@H](CC(C)C)C(=O)N[C@@H](CC(C)C)C(=O)N[C@@H](C)C(=O)N[C@@H](CCC(N)=O)C(=O)N[C@@H](CCCCN)C(N)=O)C(C)C)[C@@H](C)CC [SEQ ID NO: 2, YAEGTFISDYSIAMDKIHQQDFVNWLLAQK-NH2]
[1]
  EC50: > 10 nM
[2]
  EC50: > 10 nM

## CC[C@H](C)[C@H](NC(=O)[C@H](CO)NC(=O)[C@H](CC(C)C)NC(=O)[C@H](CC(=O)O)NC(=O)[C@H](CO)NC(=O)[C@@H](NC(=O)[C@H](Cc1ccccc1)NC(=O)[C@@H](NC(=O)CNC(=O)[C@H](CCC(=O)O)NC(=O)C(C)(C)NC(=O)[C@@H](N)Cc1ccc(O)cc1)[C@@H](C)O)[C@@H](C)CC)C(=O)N[C@@H](C)C(=O)N[C@@H](CC(C)C)C(=O)N[C@@H](CC(=O)O)C(=O)N[C@@H](CCCNC(=N)N)C(=O)N[C@H](C(=O)N[C@@H](Cc1c[nH]cn1)C(=O)N[C@@H](CCC(N)=O)C(=O)N[C@@H](CCC(=O)O)C(=O)N[C@@H](CCC(=O)O)C(=O)N[C@@H](Cc1ccccc1)C(=O)N[C@H](C(=O)N[C@@H](CCC(=O)O)C(=O)N[C@@H](Cc1c[nH]c2ccccc12)C(=O)N[C@@H](CC(C)C)C(=O)N[C@@H](CC(C)C)C(=O)N[C@@H](C)C(=O)NCC(=O)NCC(=O)N[C@@H](CCCCNC(=O)CN1CCN(CC(=O)O)CCN(CC(=O)O)CCN(CC(=O)O)CC1)C(N)=O)[C@@H](C)CC)[C@@H](C)CC [SEQ ID NO: 3, Y-Aib-EGTFISDLSIALDRIHQEEFIEWLLAGGK(DOTA)-NH2] (H-Y[Aib]EGTFISDLSIALDRIHQEEFIEWLLAGGK(DOTA)-NH2; N-terminus assumed)
[3]; 4° C.
  % Purity after 7 days: >97%
[3]; 40° C.
  % Purity after 7 days: >97%
[1]
  EC50: > 10 nM
physchem; 10 mM glycine buffer, pH 2
  solubility: ≥ 500 µg/mL
physchem; 10 mM glycine buffer, pH 2.5
  solubility: ≥ 500 µg/mL
physchem; 100 mM histidine buffer, pH 5.5
  solubility: ≥ 500 µg/mL
physchem; 100 mM phosphate buffer, pH 7.4
  solubility: ≥ 500 µg/mL
physchem; acetate buffer, pH 4.5
  solubility: < 500 µg/mL
physchem; pH 7.3
  solubility: ≥ 500 µg/mL
[2]
  EC50: > 10 nM

## CC[C@H](C)[C@H](NC(=O)[C@H](CO)NC(=O)[C@H](CC(C)C)NC(=O)[C@H](CC(=O)O)NC(=O)[C@H](CO)NC(=O)[C@@H](NC(=O)[C@H](Cc1ccccc1)NC(=O)[C@@H](NC(=O)CNC(=O)[C@H](CCC(=O)O)NC(=O)C(C)(C)NC(=O)[C@@H](N)Cc1ccc(O)cc1)[C@@H](C)O)[C@@H](C)CC)C(=O)N[C@@H](C)C(=O)N[C@@H](CC(C)C)C(=O)N[C@@H](CC(=O)O)C(=O)N[C@@H](CCCNC(=N)N)C(=O)N[C@H](C(=O)N[C@@H](Cc1c[nH]cn1)C(=O)N[C@@H](CCC(N)=O)C(=O)N[C@@H](CCC(=O)O)C(=O)N[C@@H](CCC(=O)O)C(=O)N[C@@H](Cc1ccccc1)C(=O)N[C@H](C(=O)N[C@@H](CCC(N)=O)C(=O)N[C@@H](Cc1c[nH]c2ccccc12)C(=O)N[C@@H](CC(C)C)C(=O)N[C@@H](CC(C)C)C(=O)N[C@@H](C)C(=O)NCC(=O)NCC(=O)N[C@@H](CSCCS(=O)(=O)CCN1CCN(CC(=O)O)CCN(CC(=O)O)CCN(CC(=O)O)CC1)C(N)=O)[C@@H](C)CC)[C@@H](C)CC [SEQ ID NO: 5, Y-Aib-EGTFISDLSIALDRIHQEEFIQWLLAGGC(VS-DO3A)-NH2] (H-Y[Aib]EGTFISDLSIALDRIHQEEFIQWLLAGGC(DO3A(CH2CH2SO2CH2CH2))-NH2; N-terminus assumed)
[1]
  EC50: > 10 nM
[2]
  EC50: > 10 nM
[4]
  potency (ability to activate the human GIP receptor) compared to native GIP or GIP(1-30): lower potency

## H-Y[Aib]EGTFISDLSIALDRIHQEEFIEWLLAGGK(DOTA)-NH2 (also: Ga3+ complexed in DOTA on Lys31, also called Ga-S02-GIP-T4) [SEQ ID NO: 4 (GIP(1-30) analog with K(DOTA(Ga)) at position 31)]
Human GIP receptor [5]
  IC50: 0.25 nM
Human glucagon receptor
  EC50 hGCGR, cAMP formation (HTRF), 96-well format: > 10 nM
Human GLP-1 receptor
  EC50 hGLP-1 R, cAMP formation (HTRF), 96-well format: > 10 nM
Human GIP receptor [6]
  EC50 hGIP R, cAMP formation (HTRF), 96-well format: 0.00109 nM
Human GIP receptor [7]
  fold improvement of binding affinity against GIP(1-30): ~5 fold
Human GIP receptor [8]
  fold improvement of binding affinity against native GIP: ~12 fold

B1: SEQ ID NO: 5 (GIP(1-30) analog with C(VS-DO3A) at position 31, unloaded) (peptide)
peptide: Y[Aib]EGTFISDLSIALDRIHQEEFIQWLLAGGC(DO3A(CH2CH2SO2CH2CH2))-NH2
notes: Printed: Y-Aib-EGTFISDLSIALDRIHQEEFIQWLLAGGC(VS-DO3A)-NH2
Human GIP receptor [5]
  IC50: 0.22 nM
Human glucagon receptor
  EC50 hGCGR, cAMP formation (HTRF), 384-well format: > 10 nM
Human GLP-1 receptor
  EC50 hGLP-1 R, cAMP formation (HTRF), 384-well format: > 10 nM
Human GIP receptor [6]
  EC50 hGIP R, cAMP formation (HTRF), 384-well format: 0.00022 nM
Human GIP receptor [7]
  fold improvement of binding affinity against GIP(1-30): ~5 fold
Human GIP receptor [8]
  fold improvement of binding affinity against native GIP: ~12 fold
